Assay results from publication PMC5570900, “Exploiting a novel conformational switch to control innate immunity mediated by complement protein C3a” (Nature Communications, 2017).

Biological target: T1, C3aR (Rattus norvegicus, UniProt O55197)
T1 construct: characterize for the first time a C3aR-induced innate immune response in vivo in rats; from tissue; host or cells: live male Wistar rats, hind paw
T1 sequence (O55197 1-473): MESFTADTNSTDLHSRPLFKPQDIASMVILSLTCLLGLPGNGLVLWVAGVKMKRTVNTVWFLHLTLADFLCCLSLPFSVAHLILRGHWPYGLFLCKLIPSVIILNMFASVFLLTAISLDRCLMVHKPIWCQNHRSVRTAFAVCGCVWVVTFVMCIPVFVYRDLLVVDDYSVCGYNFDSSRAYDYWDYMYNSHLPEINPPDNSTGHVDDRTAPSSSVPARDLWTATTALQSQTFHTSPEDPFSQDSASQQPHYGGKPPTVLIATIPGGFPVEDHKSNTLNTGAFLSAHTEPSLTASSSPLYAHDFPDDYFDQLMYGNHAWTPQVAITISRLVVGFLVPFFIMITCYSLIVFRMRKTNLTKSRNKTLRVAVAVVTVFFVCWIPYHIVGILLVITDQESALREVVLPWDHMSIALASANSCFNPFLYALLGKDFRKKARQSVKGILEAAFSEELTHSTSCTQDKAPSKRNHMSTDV
Test: Agonist-induced acute rat paw edema and immune responses
Type: in vivo
Method: Male Wistar rats (8–9 weeks) were injected with BR103 (3, 350 μg in 100 μL isotonic saline) into the plantar surface of both hind paw pads using a 30G needle. The inhibitor cromolyn (20 mg/kg in 5% DMSO) was injected subcutaneously 30 min before the agonist. The antagonist BR111 (6, 5–20 mg/kg in olive oil) was administered orally as a single dose 2 h before the agonist. Paw thickness and width were measured using digital calipers (WPI) at 0, 0.5, 2, 6 and 24 h after agonist BR103 administration. Hind paw size is expressed as % change in area from baseline after 0.5 h and then normalized against maximum swelling induced by agonist alone. Researchers were not blinded to treatments given.
Rat paw tissue was collected and fixed in 4% paraformaldehyde (pH 7.4) for 2 h in the cold room (4 °C). The rat paw tissue was then transferred into falcon tubes containing 30% sucrose solution in PBS and left overnight in the cold room. The next day, rat paw tissue was embedded with the Optimal Cutting Temperature compound (OCT, Sakura Finetek, USA) and stored in the −80 °C freezer before being used for making cryo-sections for histological analysis. Frozen sections of 5 microns were prepared using a cryostat-microtome (Leica Biosystems, Germany) and stained using standard protocols on the same day. In normal histological staining, such as with alcian blue and safranin O and hematoxylin and eosin (H&E), samples were briefly washed with distilled water before staining. In alcian blue and safranin O, samples were stained with 0.1% alcian blue (Sigma-Aldrich, USA) and 0.5% safranin O (Sigma-Aldrich, USA) before being mounted in mounting medium. In H&E, samples were stained with hematoxylin (Sigma-Aldrich, USA) and 0.1% eosin (Sigma-Aldrich, USA) before being mounted in mounting medium. In immunohistochemistry, samples were briefly rinsed with PBS to remove OCT and incubated with blocking medium (PBS, 0.1% triton X-100, 10% horse serum) for 1 h at room temperature. Samples were incubated with primary antibody medium (PBS, 4% horse serum, 1:200 histamine or 1:200 of tryptase or 1:150 ED1 or 1:200 ED2 antibodies) overnight at 4 °C. The next day, samples were washed with PBS and were incubated with the secondary antibody medium (PBS, 4% horse serum, detection antibody 1:1000) for 1 h at room temperature. The samples were briefly rinsed, dried and counterstained with DAPI (Invitrogen, Australia). Primary antibodies for histamine (Sigma-Aldrich, USA, H2403, monoclonal rabbit anti-rat IgG, 1: 200), tryptase (Abcam, Australia, ab2378, monoclonal mouse anti-rat IgG, 1:200), ED1 (Serotec, UK, MCA341R, monoclonal mouse anti-rat, 1:150), ED2 (Serotec, UK, MCA3424R, monoclonal mouse anti-rat, 1:200) were purchased from commercial sources. Secondary detection antibody was purchased from (Invitrogen, Australia). ED1 & ED2 positive cells were quantified using FIJI/ImageJ 1.42q software, U.S. National Institutes of Health, Bethesda, MD, USA[44]. All microscope images were obtained using an Olympus BX-51 upright microscope with Olympus DP-71 12Mp colour camera, utilizing DP Capture and DP Manager software packages (Olympus, Tokyo, Japan). Researchers who performed histological analysis and scoring were blinded to the sample identity.
Rat paw tissues were collected and immediately frozen with liquid nitrogen. The frozen rat paw tissue samples were weighed and crushed into smaller pieces with a mortar and pestle in liquid nitrogen. The crushed tissues were added to MPO buffer (50 mM potassium phosphate buffer, pH 6.0) to make up a concentration of 200 mg/mL and homogenized using Zirconium oxide beads (Next Advance, USA) and the Bullet Blender® homogeniser (Next Advance, USA). The homogenized tissues were then diluted to 100 mg/mL with the MPO buffer containing 1% hexadecyl trimethylamonium bromide (Sigma-Aldrich, USA) and underwent three cycles of freeze, thaw, and sonication. […]

[1] = 350 µg per paw i.pl., 0.5 h, vs vehicle
[2] = male Wistar rats, 350 µg per paw, i.pl.

Activated mast cells in paw tissue [1]: increased number of activated mast cells | Histamine secretion in paw tissue [1]: increased histamine secretion | Tryptase-positive cells in paw tissue [1]: decreased tryptase-positive cells | Paw edema induction [2]: induced an acute inflammatory edema | Time of peak paw swelling [2]: 0.5 h
Structure (SMILES): Cc1[nH]c(C(c2ccccc2)c2ccccc2)nc1C(=O)N[C@@H](CCCNC(=N)N)C(=O)O [Compound 3]
Infiltration of ED1+ macrophages [1]: temporal increase in infiltration of inflammatory ED1^+ macrophages | Resident ED2+ macrophage cell numbers (350 µg per paw i.pl., vs vehicle): without significantly affecting resident ED2^+ macrophage cell numbers | Proinflammatory gene expression (Il1β, Il6, Tnf, Ccl3, Mcp1) in paw (350 µg/paw i.pl., 0.5, 6, 24 h, vs vehicle): induced the upregulation of many proinflammatory genes | Myeloperoxidase (MPO) activity in paw (350 µg/paw i.pl., 30 min, 6 h, 24 h, vs sham): increased myeloperoxidase (MPO) activity at 6 h, but not at 30 min or 24 h
